Assay results: patent US20110230430A1, “SAPONIN EXTRACT FROM SAPONARIA SPP. AND USES THEREOF” (NATIONAL RESEARCH COUNCIL OF CANADA, priority 2008, published 2011)

How the values were obtained:
MCF-7 cells = test: Dual Sensor: MitoCasp Assay in MCF-7 breast cancer cells; type: cell-based, human; details: 5 and 10 μM, 24 hours
Text: Techniques to assay enzymatic and signaling processes involved in apoptosis have been developed as standard protocols. One example of an early step in apoptosis, is the release of cytochrome C from mitochondria and the activation of caspase-3. Induction of the caspases (a series of cytosolic proteases) is one of the most consistently observed features of apoptosis. Caspases are a family of proteolytic enzymes that transmit the apoptotic signal using a proteolytic cascade. […] Caspases 3 and 7 are effector caspases, central to the caspase cascade pathways. In particular, caspase-3 plays a central role in the process. […] Collapse of the mitochondrial membrane potential during apoptosis prevents the dye from accumulating in the mitochondria resulting in a decrease in fluorescent intensity that can be detected with flow cytometry. […] In this assay, caspase 3/7 activity is detected using a cell permeable carboxyfluorescein labeled caspase inhibitor, which binds covalently to active caspases 3 and 7. Cells that contain bound inhibitor are detected by an increase in fluorescence when samples are analyzed by flow cytometry. […]
MCF-7 cells were treated with 5.0 μM and 10 μM of saponins PC1526, PC1464 and PC1422 for 24 hours and assessed using Dual Sensor: MitoCasp™ Assay.

CRL-2522 cells = test: Dual Sensor: MitoCasp Assay in CRL-2522 normal fibroblast cells; type: cell-based, human
Text: (§1) Techniques to assay enzymatic and signaling processes involved in apoptosis have been developed as standard protocols. One example of an early step in apoptosis, is the release of cytochrome C from mitochondria and the activation of caspase-3. Induction of the caspases (a series of cytosolic proteases) is one of the most consistently observed features of apoptosis. Caspases are a family of proteolytic enzymes that transmit the apoptotic signal using a proteolytic cascade. […] Caspases 3 and 7 are effector caspases, central to the caspase cascade pathways. In particular, caspase-3 plays a central role in the process. When caspases are activated, they cleave target proteins; one of the most important of these is poly-(ADP-ribose) polymerase (PARP), which is a protein located in the nucleus. Therefore, assays detecting release of cytochrome C, detecting caspase-3 activity and detecting PARP degradation are effective determinants of apoptosis. The loss of mitochondrial membrane potential is known to occur during apoptosis. To analyze mitochondrial membrane potential, a cationic dye may be used which accumulates in the mitochondria of healthy cells. Collapse of the mitochondrial membrane potential during apoptosis prevents the dye from accumulating in the mitochondria resulting in a decrease in fluorescent intensity that can be detected with flow cytometry. Dual Sensor: MitoCasp™ (Cell Technology) used herein in the Examples is an assay that measures caspase 3/7 activity and cells with decreased mitochondrial membrane potential. In this assay, caspase 3/7 activity is detected using a cell permeable carboxyfluorescein labeled caspase inhibitor, which binds covalently to active caspases 3 and 7. Cells that contain bound inhibitor are detected by an increase in fluorescence when samples are analyzed by flow cytometry.
(§2) Following centrifugation at 500×g for 5 min, cell pellets were resuspended in PBS at 3.3×10^6 cells/mL. 300 μL cell suspension was mixed with 10 μL each of 30X Mitochondria Membrane Potential Dye and 30X Caspase 3/7 detection reagent. Following incubation for 60 min under normal growth conditions, cells were washed twice with 1× wash buffer and resuspended in 0.5 mL 1× wash buffer. Samples were analyzed by flow cytometry measuring the fluorescence emissions from 515 nm to 530 nm for caspase detection, and 574 nm to 600 nm for mitochondrial membrane potential detection.
CRL-2522 cells, acquired from ATCC, (American Type Culture Collection) are normal fibroblast cells that originated from human foreskin. CRL-2522 cells were maintained in RPMI 1640 medium (Gibco) supplemented with 10% fetal bovine serum (Cansera), 100 U/mL penicillin, 100 μg/mL streptomycin and 0.25 μg/mL amphotericin B. Cultures were maintained in medium at 37° C. with 5% CO2 and 100% relative humidity. […]

PC-3 cells = test: Dual Sensor: MitoCasp Assay in PC-3 prostate cancer cells; type: cell-based, human
Text: as §1
PC-3 cells (ATCC #CRL-1435) were derived from a prostate adenocarcinoma (Kaighn et al., 1979). They were maintained in RPMI 1640 medium (Gibco) supplemented with 10% fetal bovine serum (Cansera), 100 U/mL penicillin, and 100 μg/mL streptomycin and 0.25 μg/mL amphotericin B. Cultures were maintained in medium at 37° C. with 5% CO2 and 100% relative humidity.
To harvest adherent cells, the existing medium was removed and cells were dissociated with 0.25% (w/v) trypsin-EDTA·4Na in Hank's Balanced Salt Solution (Gibco). To block the proteolytic action of the trypsin, the cells were resuspended in an excess of media containing fetal bovine serum. Cells were transferred to a 15 mL conical centrifuge tube and pelleted by centrifugation at 500×g for 5 min. Cell pellets were resuspended in media, and an aliquot of the cells were seeded into a new flask.
PC-3 cells were seeded in tissue culture flasks with regular growth medium and maintained under normal conditions. […] Following incubation under normal growth conditions for the specified time, cells were washed once with cold phosphate-buffered saline (PBS) (137 mM NaCl, 2.7 mM KCl, 4.3 mM Na2HPO4.7H2O, 1.4 mM KH2PO4) and harvested as previously described. Assays were carried out according to instructions given in kits. All Flow Cytometry was performed using a Coulter Epics XL (Beckman).
as §2

[1] = Haemolytic properties of selected saponins; details: saponins purified to more than 75%
Text: The haemolytic properties of the various saponins that have been purified to more than 75% have been examined and are provided in Table 39. Haemolytic properties are not directly related to anti-cancer or apoptosis inducing properties of saponins but may be related to toxicity and utility of the saponins for preparation of injectable formulations. Saponins most suitable for injectable formulation will be less haemolytic. QS21, a purified Quillaja saponaria saponin with known haemolytic activity is used as reference.

MDA-MB-231 cells = test: Dual Sensor: MitoCasp Assay in MDA-MB-231 breast cancer cells; type: cell-based, human
Text: as §1, §2
The MDA-MB-231 cell line (ATCC #HTB-26) was derived from the pleural effusion of a patient with a breast adenocarcinoma (Cailleau et al., 1974). The cells were maintained in RPMI 1640 (Gibco) supplemented with 10% fetal bovine serum (Camera), 100 U/mL penicillin, 100 μg/mL streptomycin and 0.25 μg/mL amphotericin B. Cultures were maintained in medium at 37° C. with 5% CO2 and 100% relative humidity. […]

HT-29 cancer cells = test: Dual Sensor: MitoCasp Assay in HT-29 colon cancer cells; type: cell-based, human; details: HT-29 cells, 2.5 μM, 24 hours
Text: as §1, with “To analyze mitochondrial membrane potential, a cationic dye may be used which accumulates in the mitochondria of healthy cells.” left out, “Dual Sensor: MitoCasp™ (Cell Technology) used herein in the Examples is an assay that measures caspase 3/7 activity and cells with decreased mitochondrial membrane potential.” left out
Following PC1448 treatment, adherent and non-adherent cells were harvested and washed with cold PBS. […] Samples were analyzed by flow cytometry measuring the fluorescence emissions from 515 nm to 530 nm for caspase detection, and 574 nm to 600 nm for mitochondrial membrane potential detection. […]
HT-29 cancer cells were treated with 2.5 μM, 5.0 μM and 10 μM of PC1526 or PC1448 for 23 hours, or with 2.5 μM, 5.0 μM and 10 μM PC1422 for 24 hours and assessed using the Dual Sensor: MitoCasp™ Assay. […]

[2] = tested on: PC-3, MDA-MB-231, WiDr, and HT-29 Cells; test: Order of apoptosis potency across cancer cell lines; design: species or system human; details: rank based on responses observed in PC-3, MDA-MB-231, WiDr, and HT-29 Cells; 1 = most active
[3] = CRL-2522 cells, 2.5 μM PC1422, 36 hr
[4] = CRL-2522 cells, 5.0 μM PC1422, 36 hr
[5] = CRL-2522 cells, 10.0 μM PC1422, 36 hr
[6] = CRL-2522 cells, 15.0 μM PC1422, 36 hr
[7] = 5.0 μM saponin, 36 hours (comparison of saponins)
[8] = CRL-2522 cells, 2.5 μM PC1380, 32 hr
[9] = CRL-2522 cells, 5.0 μM PC1380, 32 hr
[10] = CRL-2522 cells, 10.0 μM PC1380, 32 hr
[11] = CRL-2522 cells, 15.0 μM PC1380, 32 hr

Vaccaroside E [PC1422]
Induction of apoptosis (in words, FIG. 16) (MCF-7 cells): do not induce apoptosis
Cells with caspase 3/7 activity (CRL-2522 cells; [3]): 3.1%
Cells with decreased mitochondrial membrane potential (CRL-2522 cells; [3]): 3.4%
Cells with caspase 3/7 activity (CRL-2522 cells; [4]): 15.3%
Cells with decreased mitochondrial membrane potential (CRL-2522 cells; [4]): 5.1%
Cells with caspase 3/7 activity (CRL-2522 cells; [5]): 12.8%
Cells with decreased mitochondrial membrane potential (CRL-2522 cells; [5]): 19.2%
Cells with caspase 3/7 activity (CRL-2522 cells; [6]): 7.3%
Cells with decreased mitochondrial membrane potential (CRL-2522 cells; [6]): 26.2%
Cells with Caspase 3/7 activity and decreased mitochondrial membrane potential vs untreated (in words) (CRL-2522 cells; CRL-2522 cells, PC1422 15.0-2.5 μM, 36 hours): modest increase
Apoptosis in non-cancerous cell line (summary in words) (CRL-2522 cells; fibroblast cell line CRL-2522, summary of the Examples): no or little apoptosis
Cells with caspase 3/7 activity (PC-3 cells; 2.5 μM PC1422, 36 hr): 42.2%
Cells with decreased mitochondrial membrane potential (PC-3 cells; 2.5 μM PC1422, 36 hr): 23.6%
Cells with caspase 3/7 activity (PC-3 cells; 5.0 μM PC1422, 36 hr): 49.1%
Cells with decreased mitochondrial membrane potential (PC-3 cells; 5.0 μM PC1422, 36 hr): 30.0%
Cells with caspase 3/7 activity (PC-3 cells; 10.0 μM PC1422, 36 hr): 55.7%
Cells with decreased mitochondrial membrane potential (PC-3 cells; 10.0 μM PC1422, 36 hr): 53.7%
Cells with caspase 3/7 activity (PC-3 cells; 15.0 μM PC1422, 36 hr): 57.1%
Cells with decreased mitochondrial membrane potential (PC-3 cells; 15.0 μM PC1422, 36 hr): 53.3%
Concentration of greatest effect on apoptosis (PC-3 cells; 36 hours): above 10 μM
Induction of apoptosis at concentrations as low as (PC-3 cells; 36 hours): 2.5 µM
HD50 [1]: 43.8 µM
Cells with caspase 3/7 activity (MDA-MB-231 cells; 2.5 μM PC1422, 36 hr): 21.1%
Cells with decreased mitochondrial membrane potential (MDA-MB-231 cells; 2.5 μM PC1422, 36 hr): 13.7%
Cells with caspase 3/7 activity (MDA-MB-231 cells; 5.0 μM PC1422, 36 hr): 32.2%
Cells with decreased mitochondrial membrane potential (MDA-MB-231 cells; 5.0 μM PC1422, 36 hr): 32.9%
Cells with caspase 3/7 activity (MDA-MB-231 cells; [7]): 41.2%
Cells with decreased mitochondrial membrane potential (MDA-MB-231 cells; [7]): 21.7%
Cells with caspase 3/7 activity (MDA-MB-231 cells; 10.0 μM PC1422, 36 hr): 41.6%
Cells with decreased mitochondrial membrane potential (MDA-MB-231 cells; 10.0 μM PC1422, 36 hr): 46.0%
Cells with caspase 3/7 activity (MDA-MB-231 cells; 15.0 μM PC1422, 36 hr): 26.7%
Cells with decreased mitochondrial membrane potential (MDA-MB-231 cells; 15.0 μM PC1422, 36 hr): 65.2%
Concentration of greatest effect on apoptosis (MDA-MB-231 cells; 36 hours): 15 µM
Induction of apoptosis at concentrations as low as (MDA-MB-231 cells; 36 hours): 2.5 µM
Caspase 3/7 activity compared to untreated cells / induction of apoptosis (in words, FIG. 5) (HT-29 cancer cells; 5.0 μM and 10 μM): increase in caspase 3/7 activity
Order of Apoptosis Potency [2]: 4

CC1OC(OC(=O)C23CCC(C)(C)CC2C2=CCC4C5(C)CCC(OC6OC(C(=O)O)C(O)C(O)C6OC6OC(CO)C(O)C(O)C6O)C(C)(C=O)C5CCC4(C)C2(C)CC3O)C(OC2OC(C)C(OC3OCC(O)C(O)C3O)C(O)C2O)C(OC2OC(CO)C(O)C2O)C1O (centres unmarked) [PC1380]
Cells with caspase 3/7 activity (CRL-2522 cells; [8]): 0.4%
Cells with decreased mitochondrial membrane potential (CRL-2522 cells; [8]): 1.8%
Cells with caspase 3/7 activity (CRL-2522 cells; [9]): 1.0%
Cells with decreased mitochondrial membrane potential (CRL-2522 cells; [9]): 4.0%
Cells with caspase 3/7 activity (CRL-2522 cells; [10]): 1.2%
Cells with decreased mitochondrial membrane potential (CRL-2522 cells; [10]): 2.6%
Cells with caspase 3/7 activity (CRL-2522 cells; [11]): 0.9%
Cells with decreased mitochondrial membrane potential (CRL-2522 cells; [11]): 4.5%
Apoptosis (in words) (CRL-2522 cells; CRL-2522 cells, PC1380 15.0-2.5 μM, 32 hours): no significant apoptosis
Cells with caspase 3/7 activity (PC-3 cells; 2.5 μM PC1380, 35 hr): 11.4%
Cells with decreased mitochondrial membrane potential (PC-3 cells; 2.5 μM PC1380, 35 hr): 5.8%
Cells with caspase 3/7 activity (PC-3 cells; 5.0 μM PC1380, 35 hr): 15.3%
Cells with decreased mitochondrial membrane potential (PC-3 cells; 5.0 μM PC1380, 35 hr): 7.1%
Cells with caspase 3/7 activity (PC-3 cells; 10.0 μM PC1380, 35 hr): 14.9%
Cells with decreased mitochondrial membrane potential (PC-3 cells; 10.0 μM PC1380, 35 hr): 8.7%
Cells with caspase 3/7 activity (PC-3 cells; 15.0 μM PC1380, 35 hr): 31.8%
Cells with decreased mitochondrial membrane potential (PC-3 cells; 15.0 μM PC1380, 35 hr): 15.9%
Cells with Caspase 3/7 activity and decreased mitochondrial membrane potential vs untreated (in words) (PC-3 cells; PC1380 15.0-2.5 μM, 35 hours): small increase
Cells with caspase 3/7 activity (MDA-MB-231 cells; 2.5 μM PC1380, 34 hr): 6.2%
Cells with decreased mitochondrial membrane potential (MDA-MB-231 cells; 2.5 μM PC1380, 34 hr): 3.2%
Cells with caspase 3/7 activity (MDA-MB-231 cells; 5.0 μM PC1380, 34 hr): 8.0%
Cells with decreased mitochondrial membrane potential (MDA-MB-231 cells; 5.0 μM PC1380, 34 hr): 4.7%
Cells with caspase 3/7 activity (MDA-MB-231 cells; 10.0 μM PC1380, 34 hr): 9.4%
Cells with decreased mitochondrial membrane potential (MDA-MB-231 cells; 10.0 μM PC1380, 34 hr): 6.6%
Cells with caspase 3/7 activity (MDA-MB-231 cells; 15.0 μM PC1380, 34 hr): 7.9%
Cells with decreased mitochondrial membrane potential (MDA-MB-231 cells; 15.0 μM PC1380, 34 hr): 4.3%
Apoptosis activity (in words) (MDA-MB-231 cells; PC1380 15.0-2.5 μM, 34 hours): no significant apoptosis activity
Induction of apoptosis (in words, FIG. 6) (HT-29 cancer cells; 5.0 μM, 10 μM and 15 μM): does not induce apoptosis

QS21 [reference compound]
HD50 [1]: 7.5 µM
